Assay results reported in patent US6537976B1, “Dialysis solutions containing water soluble vitamins and nutrients” (priority 1997, dated 2003).
Read-outs that look alike come from different tables or passages of the source. Blank lines part the entries; values can stand above or below the compound they belong to.

Tests used:
[1] = cited from earlier work
[2] = In vitro hemodialysis of uremic plasma using dialysate solutions with and without added vitamins
[3] = cited from earlier work; remark: listed apart in the source
[4] = cited from earlier work; remark: listed apart in the source
[5] = system: plasma proteins; conditions: subjects with normal kidney function; effects of uremia not examined; cited from earlier work
[6] = subjects with normal renal function; cited from earlier work
[7] = vitamin in the dialysate 0 μg/L
[8] = vitamin in the dialysate 15 μg/L
[9] = vitamin in the dialysate 150 μg/L
[10] = vitamin in the dialysate 60 μg/L
[11] = vitamin in the dialysate 600 μg/L

Compound: O=C1O[C@H]([C@@H](O)CO)C(O)=C1O [Ascorbic acid (vit C), ascorbic acid]
Plasma concentration in hemodialysis patients receiving supplementation in high doses ([1]; 500 mg ascorbic acid/day for 2 weeks, mean ± SE): 28 ± 2 mg/L (mean ± SE), | Plasma concentration in hemodialysis patients receiving supplementation in high doses, Range ([1]; 500 mg ascorbic acid/day for 2 weeks, range): Range: 15-37 mg/L,

Plasma concentration of the vitamin after dialysis for 0 min (Baseline) [2, 7]: 5.8 ng/mL | Plasma concentration of the vitamin after dialysis for 45 min [2, 7]: 1.7 ng/mL | Plasma concentration of the vitamin after dialysis for 90 min [2, 7]: 3.3 ng/mL | Plasma concentration of the vitamin after dialysis for 0 min (Baseline) [2, 8]: 5.8 ng/mL | Plasma concentration of the vitamin after dialysis for 45 min [2, 8]: 32.2 ng/mL | Plasma concentration of the vitamin after dialysis for 90 min [2, 8]: 39.8 ng/mL | Plasma concentration of the vitamin after dialysis for 0 min (Baseline) [2, 9]: 5.8 ng/mL | Plasma concentration of the vitamin after dialysis for 45 min [2, 9]: 256.5 ng/mL | Plasma concentration of the vitamin after dialysis for 90 min [2, 9]: 272.2 ng/mL
Compound: Nc1nc2ncc(CNc3ccc(C(=O)N[C@@H](CCC(=O)O)C(=O)O)cc3)nc2c(=O)[nH]1 [Folic acid, folic acid]
Plasma concentration in hemodialysis patients receiving supplementation in high doses ([1]; 15 mg folic acid daily for 8 weeks, predialysis, mean ± SD): 927 ± 575 μg/L with 15

Compound: C[N+](C)(C)C[C@H](O)CC(=O)[O-] [L-carnitine]
Free carnitine plasma concentration in hemodialysis patients receiving supplementation in high doses ([1]; 20 mg/Kg L-carnitine intravenously three times a week following hemodialysis for 6 months, mean ± SE): Free carnitine 250 ± 11 μmol/L | patients showing global improvement in clinical status ([3]; 20 mg/kg intravenous after each hemodialysis session for 6 months, control group 18%): 50% | clinical effects of carnitine administration ([3]; chronic hemodialysis patients): improvement in intradialytic hypotension, muscle cramps, exercise capacity, a sense of well being | solubility in water [4]: water soluble | Fraction of the plasma content that is protein bound (binding in words) [5]: not bound | fraction of the administered dose excreted in the urine [6]: 58-65%

Compound: Cc1ncc(COP(=O)(O)O)c(C=O)c1O [Pyridoxal 5′-phosphate (vit B6), pyridoxal 5-phosphate]
Fraction of the plasma content that is protein bound (binding in words) [5]: albumin

Plasma concentration of the vitamin after dialysis for 0 min (Baseline) [2, 7]: 17 ng/mL | Plasma concentration of the vitamin after dialysis for 90 min [2, 7]: 3.6 ng/mL | Plasma concentration of the vitamin after dialysis for 0 min (Baseline) [2, 10]: 17 ng/mL | Plasma concentration of the vitamin after dialysis for 90 min [2, 10]: 72 ng/mL | Ratio of Plasma to dialysate at the end of dialysis (VP/VD) [2, 10]: 1.2 | Plasma concentration of the vitamin after dialysis for 0 min (Baseline) [2, 11]: 17 ng/mL | Plasma concentration of the vitamin after dialysis for 90 min [2, 11]: >100 ng/mL
Compound: Cc1ncc(C[n+]2csc(CCO)c2C)c(N)n1 [Thiamine, thiamine]
Whole blood thiamine in hemodialysis patients receiving supplementation in high doses ([1]; 600-900 mg thiamine per week, predialysis, mean ± SD): 50 ± 12 µg/L | Fraction of the plasma content that is protein bound (binding in words) [5]: albumin

Compound: Cc1ncc(CO)c(CO)c1O.Cl [pyridoxine hydrochloride]
effect of addition to the dialysate on plasma PLP concentration ([2]; assay specific for esters such as PLP, does not measure pyridoxine): did not result in an increase in PLP concentration

Compound: cyanocobalamin [Vitamin B12]
Plasma concentration in hemodialysis patients receiving supplementation in high doses ([1]; vitamin B12, Bostom et al., predialysis, mean ± SD): 1.3 ± 0.4 ng/mL | solubility in water [4]: soluble in water | Fraction of the plasma content that is protein bound (binding in words) [5]: Protein bound
